Data as given in the NIST ThermoML archive (doi:10.1021/je900050z).
“And” between values parts separate entries of the source, which are not always exact repeats. Equal values may be shown once. Numbers after ± are expanded uncertainties.

Settings: Liquid

CCCC(C)O (stereo not given) [pentan-2-ol]
Settings	vapor or sublimation pressure
323.84 K	4.16 ± 0.34 kPa
324.19 K	4.41 ± 0.36 kPa
324.55 K	4.39 ± 0.36 kPa
325.09 K	4.67 ± 0.38 kPa
326 K	4.93 ± 0.4 kPa
326.22 K	4.89 ± 0.4 kPa
326.99 K	5.27 ± 0.43 kPa
327.15 K	5.2 ± 0.42 kPa
327.64 K	5.43 ± 0.44 kPa
328.19 K	5.71 ± 0.46 kPa
328.23 K	5.64 ± 0.46 kPa
329.05 K	5.91 ± 0.48 kPa
329.11 K	5.95 ± 0.48 kPa and 6.04 ± 0.49 kPa
329.66 K	6.16 ± 0.5 kPa
329.9 K	6.33 ± 0.51 kPa
330.86 K	6.71 ± 0.54 kPa
331.78 K	7.08 ± 0.57 kPa
332.29 K	7.17 ± 0.58 kPa
332.55 K	7.4 ± 0.6 kPa
332.61 K	7.31 ± 0.59 kPa
332.92 K	7.43 ± 0.6 kPa
333.15 K	7.52 ± 0.6 kPa
333.37 K	7.76 ± 0.62 kPa
333.88 K	7.99 ± 0.64 kPa
334.61 K	8.33 ± 0.67 kPa
335.52 K	8.77 ± 0.7 kPa
336.34 K	9.17 ± 0.74 kPa
336.37 K	9.19 ± 0.74 kPa
337.2 K	9.59 ± 0.77 kPa
337.85 K	9.95 ± 0.8 kPa
338.74 K	10.43 ± 0.84 kPa
339.44 K	10.81 ± 0.87 kPa
340.1 K	11.21 ± 0.9 kPa
340.82 K	11.67 ± 0.94 kPa
341.54 K	12.11 ± 0.97 kPa
342.2 K	12.52 ± 1 kPa
342.83 K	12.77 ± 1 kPa
342.88 K	12.97 ± 1 kPa
343.15 K	13 ± 1 kPa
343.26 K	13.07 ± 1.1 kPa
343.3 K	13.11 ± 1.1 kPa
343.38 K	13.16 ± 1.1 kPa
344.38 K	13.99 ± 1.1 kPa
345.27 K	14.65 ± 1.2 kPa
346.15 K	15.31 ± 1.2 kPa
347.02 K	15.96 ± 1.3 kPa
347.8 K	16.63 ± 1.3 kPa
348.68 K	17.32 ± 1.4 kPa
349.38 K	17.95 ± 1.4 kPa
350.16 K	18.63 ± 1.5 kPa
350.93 K	19.31 ± 1.6 kPa
351.64 K	19.96 ± 1.6 kPa
351.88 K	20 ± 1.6 kPa
352.33 K	20.43 ± 1.6 kPa
352.6 K	20.65 ± 1.6 kPa
352.7 K	20.72 ± 1.7 kPa
352.76 K	20.83 ± 1.7 kPa
352.89 K	20.96 ± 1.7 kPa
353.05 K	21.12 ± 1.7 kPa
353.1 K	21.19 ± 1.7 kPa
353.15 K	21.2 ± 1.7 kPa
353.35 K	21.4 ± 1.7 kPa
354.12 K	22.16 ± 1.8 kPa
354.72 K	22.83 ± 1.8 kPa
355.42 K	23.55 ± 1.9 kPa
355.92 K	24.12 ± 1.9 kPa
356.39 K	24.44 ± 2 kPa
356.55 K	24.84 ± 2 kPa
357.15 K	25.47 ± 2 kPa
357.76 K	26.2 ± 2.1 kPa
357.79 K	26 ± 2.1 kPa
358.23 K	26.75 ± 2.1 kPa
358.83 K	27.45 ± 2.2 kPa
358.88 K	27.32 ± 2.2 kPa
359.01 K	27.45 ± 2.2 kPa
359.53 K	28.19 ± 2.3 kPa
359.91 K	28.67 ± 2.3 kPa
360.35 K	29.25 ± 2.3 kPa
360.5 K	29.41 ± 2.4 kPa
361.12 K	30.29 ± 2.4 kPa
361.45 K	30.68 ± 2.5 kPa
362.1 K	31.59 ± 2.5 kPa
362.5 K	32.13 ± 2.6 kPa
362.93 K	32.73 ± 2.6 kPa
363.38 K	33.35 ± 2.7 kPa
363.85 K	34.05 ± 2.7 kPa
364.28 K	34.64 ± 2.8 kPa
364.84 K	35.47 ± 2.8 kPa
365.13 K	35.95 ± 2.9 kPa
365.62 K	36.71 ± 2.9 kPa
366.01 K	37.32 ± 3 kPa
366.4 K	37.95 ± 3 kPa
366.86 K	38.64 ± 3.1 kPa
367.24 K	39.31 ± 3.1 kPa
367.65 K	39.97 ± 3.2 kPa
368.06 K	40.64 ± 3.2 kPa
368.44 K	41.27 ± 3.3 kPa
368.85 K	41.96 ± 3.4 kPa
369.31 K	42.73 ± 3.4 kPa
369.58 K	43.23 ± 3.5 kPa
370.05 K	44.05 ± 3.5 kPa
370.46 K	44.75 ± 3.6 kPa
370.74 K	45.4 ± 3.6 kPa
371.07 K	45.91 ± 3.7 kPa
371.47 K	46.64 ± 3.7 kPa
371.82 K	47.45 ± 3.8 kPa
372.15 K	47.93 ± 3.8 kPa
372.5 K	48.64 ± 3.9 kPa
372.91 K	49.31 ± 4 kPa
373.16 K	49.87 ± 4 kPa
373.57 K	50.71 ± 4.1 kPa
373.88 K	51.25 ± 4.1 kPa
374.25 K	52.03 ± 4.2 kPa
374.47 K	52.55 ± 4.2 kPa
374.85 K	53.37 ± 4.3 kPa
375.14 K	53.95 ± 4.3 kPa
375.44 K	54.67 ± 4.4 kPa
375.83 K	55.37 ± 4.4 kPa
376.13 K	56.01 ± 4.5 kPa
376.47 K	56.71 ± 4.5 kPa
376.74 K	57.36 ± 4.6 kPa
377.07 K	58 ± 4.6 kPa
377.32 K	58.64 ± 4.7 kPa
377.65 K	59.32 ± 4.8 kPa
377.91 K	59.97 ± 4.8 kPa
378.22 K	60.67 ± 4.8 kPa
378.56 K	61.4 ± 4.9 kPa
378.81 K	61.97 ± 5 kPa
379.04 K	62.61 ± 5 kPa
379.39 K	63.39 ± 5.1 kPa
379.6 K	63.91 ± 5.1 kPa
379.89 K	64.6 ± 5.2 kPa
380.13 K	65.2 ± 5.2 kPa
380.47 K	65.99 ± 5.3 kPa
380.7 K	66.63 ± 5.3 kPa
381 K	67.31 ± 5.4 kPa
381.26 K	68.01 ± 5.4 kPa
381.53 K	68.67 ± 5.5 kPa
381.76 K	69.31 ± 5.5 kPa
382.08 K	70.21 ± 5.6 kPa
382.28 K	70.63 ± 5.7 kPa
382.55 K	71.31 ± 5.7 kPa
382.78 K	71.95 ± 5.8 kPa
383.05 K	72.65 ± 5.8 kPa
383.29 K	73.35 ± 5.9 kPa
383.53 K	73.93 ± 5.9 kPa
383.76 K	74.63 ± 6 kPa
384.09 K	75.48 ± 6 kPa
384.26 K	75.99 ± 6.1 kPa
384.5 K	76.63 ± 6.1 kPa
384.74 K	77.35 ± 6.2 kPa
384.95 K	77.93 ± 6.2 kPa
385.42 K	79.27 ± 6.3 kPa
385.65 K	80 ± 6.4 kPa
385.87 K	80.56 ± 6.5 kPa
386.24 K	81.79 ± 6.5 kPa
386.32 K	81.88 ± 6.5 kPa
386.54 K	82.68 ± 6.6 kPa
386.76 K	83.23 ± 6.7 kPa
386.96 K	84.05 ± 6.7 kPa
387.37 K	85.27 ± 6.8 kPa
387.8 K	86.61 ± 6.9 kPa
388.23 K	88 ± 7 kPa
388.66 K	89.39 ± 7.2 kPa
389.07 K	90.69 ± 7.3 kPa
389.51 K	92.16 ± 7.4 kPa
389.9 K	93.44 ± 7.5 kPa
390.26 K	94.61 ± 7.6 kPa
390.65 K	95.95 ± 7.7 kPa
391.05 K	97.27 ± 7.8 kPa
391.46 K	98.71 ± 7.9 kPa

CCCCCCO [hexan-1-ol]
Settings	vapor or sublimation pressure [kPa]
343.46 K	2.04 ± 0.17
344.2 K	2.16 ± 0.18
344.6 K	2.23 ± 0.18
345.36 K	2.35 ± 0.19
346.17 K	2.47 ± 0.2
347.27 K	2.67 ± 0.22
348.1 K	2.79 ± 0.23
348.35 K	2.85 ± 0.23
349.38 K	3.04 ± 0.25
349.75 K	3.11 ± 0.25
350.75 K	3.32 ± 0.27
351.39 K	3.44 ± 0.28
352.2 K	3.64 ± 0.29
352.63 K	3.73 ± 0.3
353 K	3.83 ± 0.31
353.31 K	3.89 ± 0.31
353.82 K	3.96 ± 0.32
355.2 K	4.31 ± 0.35
357.01 K	4.79 ± 0.38
358.22 K	5.15 ± 0.41
359.43 K	5.51 ± 0.44
360.34 K	5.79 ± 0.46
361.12 K	6.04 ± 0.48
361.86 K	6.29 ± 0.5
363.85 K	6.99 ± 0.56
364.61 K	7.27 ± 0.58
365.58 K	7.64 ± 0.61
366.3 K	7.92 ± 0.63
367.44 K	8.4 ± 0.67
368.05 K	8.67 ± 0.69
368.99 K	9.08 ± 0.73
369.67 K	9.4 ± 0.75
370.24 K	9.67 ± 0.77
370.83 K	9.95 ± 0.8
371.45 K	10.27 ± 0.82
372.1 K	10.59 ± 0.85
373 K	11.05 ± 0.88
373.67 K	11.43 ± 0.92
374.19 K	11.73 ± 0.94
375.14 K	12.27 ± 0.98
375.93 K	12.73 ± 1
376.59 K	13.15 ± 1.1
377.22 K	13.53 ± 1.1
377.83 K	13.71 ± 1.1
378.01 K	13.85 ± 1.1
378.37 K	14.15 ± 1.1
378.72 K	14.4 ± 1.1
379.1 K	14.65 ± 1.2
379.46 K	14.91 ± 1.2
379.75 K	15.12 ± 1.2
380.06 K	15.37 ± 1.2
380.41 K	15.61 ± 1.2
380.87 K	15.95 ± 1.3
381.15 K	16.15 ± 1.3
381.45 K	16.37 ± 1.3
381.89 K	16.71 ± 1.3
382.25 K	16.97 ± 1.4
382.56 K	17.21 ± 1.4
382.85 K	17.44 ± 1.4
383.18 K	17.69 ± 1.4
383.34 K	17.84 ± 1.4
383.67 K	18.09 ± 1.4
384.08 K	18.43 ± 1.5
384.87 K	19.05 ± 1.5
385.37 K	19.47 ± 1.6
385.86 K	19.91 ± 1.6
386.31 K	20.31 ± 1.6
386.83 K	20.79 ± 1.7
387.23 K	21.15 ± 1.7
387.62 K	21.48 ± 1.7
388.1 K	21.91 ± 1.8
388.59 K	22.37 ± 1.8
389.05 K	22.79 ± 1.8
389.48 K	23.2 ± 1.9
389.89 K	23.6 ± 1.9
390.23 K	23.95 ± 1.9
390.65 K	24.36 ± 1.9
390.93 K	24.67 ± 2
391.4 K	25.13 ± 2
391.75 K	25.51 ± 2
392.06 K	25.83 ± 2.1
392.51 K	26.31 ± 2.1
392.77 K	26.59 ± 2.1
393.14 K	27 ± 2.2
